Test results reported in PMC11510591, “In Vitro Evaluation of Pharmacokinetic Properties of Selected Dual COX-2 and 5-LOX Inhibitors” (Pharmaceuticals, 2024).

Legend:
[1] = target: T1, human serum albumin (HSA) (Homo sapiens, UniProt P02768); assay: Differential pulse voltammetry (DPV), interaction with HSA; format: binding; settings: compound 0.05 mmol/L, PBS pH 7.4, HSA 0.05–10 μmol/L; for fraction unbound at 0.05 mmol/L: human, human serum albumin solution in PBS, read-out: % Bound Drug (converted)
T1 construct: purchased Sigma-Aldrich
Experimental: The electrochemical oxidation of the tested compounds at a concentration of 0.05 mmol/L in PBS buffer pH 7.4 was investigated by differential pulse voltammetry (DPV). […] For all tested compounds, a preliminary study of the interaction with HSA was performed at a concentration of 0.05 mmol/L and different HSA concentrations (0.05–10 μmol/L) using DPV. […] It has been reported that the shift in the potential of an electroactive ligand is a suitable criterion to determine the mode of the macromolecule–ligand interaction. In this context, a positive shift in potential is an indication of hydrophobic interaction of investigated compounds with HSA [34]. The decrease in peak current could be due to the formation of a non-electroactive supramolecular compound by the drug–protein interaction, which reduces the concentration of free drug.
The voltammetric measurements were carried out with the µAutolab analyzer (EcoChemie, Utrecht, The Netherlands). A three-electrode system with a GCE working electrode, an Ag/AgCl reference electrode, and a Pt-auxiliary electrode was used. Before each experiment, the GCE was manually polished with an aqueous slurry of Al2O3 powder (particle size of 0.05 μm) on a smooth polishing pad, sonicated in deionized water, and then treated in absolute ethanol. Phosphate buffer saline (PBS) pH 7.4 was used as the supporting electrolyte. The experiments were carried out with deaerated PBS buffer. A stock solution of HSA in PBS at a concentration of 0.1 mmol/L was used. […] The interaction between tested compounds and HSA was examined in PBS solution, using solutions of tested compounds in a concentration of 0.05 mmol/L and HSA solution with a concentration in the range of 0.05–10 μmol/L.
The percentage of free compound (Equation (4)) was calculated from the ratio of the current intensity (IINT) for a given compound concentration (0.05 mmol/L) in the presence of albumin to the signal obtained at the same compound concentration only in the presence of the supporting electrolyte (PBS buffer) (IC).

zebrafish embryos = tested on: zebrafish embryos; parameters: method as in PMID 38931946; settings: at therapeutic doses; cited from earlier work
[2] = target: T1, human serum albumin (HSA); format: binding; settings: CHIRALPAK HSA column, ammonium acetate buffer pH 7.0/acetonitrile 85:15, 25 °C
Experimental: Recently, interactions of many newly synthesized structurally diverse compounds with HSA were successfully studied using this technique. The degree of binding of the tested compounds to HSA was evaluated based on their retention behavior on the stationary phase modified with HSA. The logarithmic values of retention factors (logk) were used to evaluate indirectly and compare the drug–HSA interaction.
HPAC analysis was performed on an Agilent 1200 Series chromatograph (Agilent Technologies, Santa Clara, CA, USA). […] The mobile phase consisted of ammonium acetate buffer (pH 7.0; 0.01 M) and acetonitrile (85:15, v/v). The flow rate was 0.6 mL/min, the temperature was set to 25 °C, and the detection of tested compounds was carried out at 283 nm. Tested compounds were dissolved in DMSO (at a concentration of 1 mg/mL), further diluted with the mobile phase to a final concentration of 0.05 mg/mL, and analyzed in triplicate. The HPAC conditions were selected not only with the aim of achieving satisfactory retention characteristics of all synthesized compounds but also taking into account recommendations of a column manufacturer. Retention factors were calculated using Equation (1), where t0 (column dead time) was the retention time of DMSO at 220 nm.

T1 sequence (P02768 25-609): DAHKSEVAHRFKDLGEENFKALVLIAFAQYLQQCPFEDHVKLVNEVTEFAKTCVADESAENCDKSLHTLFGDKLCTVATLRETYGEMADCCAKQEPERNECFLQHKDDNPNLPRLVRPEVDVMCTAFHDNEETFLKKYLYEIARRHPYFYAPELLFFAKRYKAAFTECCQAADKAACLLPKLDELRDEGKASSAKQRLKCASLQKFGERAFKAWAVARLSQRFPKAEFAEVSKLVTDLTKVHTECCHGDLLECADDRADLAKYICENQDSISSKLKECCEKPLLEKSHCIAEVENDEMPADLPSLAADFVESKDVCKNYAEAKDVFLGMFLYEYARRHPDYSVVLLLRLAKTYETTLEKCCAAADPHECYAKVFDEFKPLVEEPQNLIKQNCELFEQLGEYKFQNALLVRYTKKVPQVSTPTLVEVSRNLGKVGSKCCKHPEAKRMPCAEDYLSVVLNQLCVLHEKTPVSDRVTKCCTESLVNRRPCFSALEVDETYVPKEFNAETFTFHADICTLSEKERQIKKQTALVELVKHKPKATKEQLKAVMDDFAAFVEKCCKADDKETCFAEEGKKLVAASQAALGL

Row | Structure (SMILES) | ΔE, DPV peak potential shift after interaction with HSA [1] | fraction unbound at 0.05 mmol/L [1] | toxic effects on zebrafish embryos (zebrafish embryos) | Retention Factors (logk) [2]
1 | COc1ccc2c(c1)c(CNC(=O)NO)c(C)n2C(=O)c1ccc(Cl)cc1 [Compound 1] | 34 mV | 0.267 | – | –
2 | O=C(NO)NCc1ccccc1Nc1c(Cl)cccc1Cl [Compound 3] | 29 mV | 0.198 | did not show toxic effects | –
3 | CC(=O)N(O)C(C)c1ccc(CC(C)C)cc1 (stereo not drawn) [Compound 11] | 7 mV | 0.292 | – | –
4 | CC(NC(=O)NO)c1ccc(-c2ccccc2)c(F)c1 (stereo not drawn) [Compound 2] | 30 mV | 0.198 | – | –
5 | COc1ccc2cc(C(C)N(O)C(C)=O)ccc2c1 (stereo not drawn) [Compound 12] | 13 mV | 0.296 | – | 2.03 ± 0.02
